The record followed here is patent publication US20090028795A1, “NOD1 as an Anti-Tumor Agent” (priority 2005, published 2009).

Holding throughout (format): cell-based, human
The subject of experiment [1] is MCF-7 Nod2 cells. Description: Apoptosis (PI, flow cytometry) in MCF-7 cells over-expressing Nod2. Conditions: 20 ug/ml plus CHX, 48 h. Here is the method: (§1) In FIG. 5A, MCF-7 Blasto, MCF-7 Nod1 and MCF-7 Nod2 were treated with the NOD1 ligand γTriDAP or the Nod2 ligand muramyl dipeptide (MDP)(20 ug/ml each) in the presence or absence of CHX for 48 h. Cells were then incubated with PI and apoptotic cell death was measured by flow cytometry. […] In FIG. 5B, expression of NOD1 and NOD2 was confirmed by Western blot analysis using anti-Myc antibodies for detection of the recombinant proteins. […] MCF-7 Blasto, MCF-7 Nod1 and MCF-7 Nod2 cells were stimulated with γTriDAP or MDP in the presence or absence of CHX (0.5 ug/ml) for 24 h. Cell supernatants were then harvested and assayed for IL-8 secretion.
Cell viability assays. Propidium iodide exclusion assay: Cells were stimulated as indicated for 2 days. […] The extent of cell death was analyzed with a FACSCalibur flow cytometer (Becton Dickinson, Mountain View, Calif.). […] Cells were fixed in 4% paraformaldehyde and examined by fluorescence microscopy.
(§2) Experiments were also performed to ascertain whether activation of Nod2 by its specific activator, muramyl dipeptide (MDP), would initiate apoptosis in parental MCF-7 cells or in MCF-7 cells over-expressing Nod2 (MCF-7 Nod2). Thus, γTriDAP or MDP were added to each of these lines and apoptosis (FIG. 5A) and IL-8 production (FIG. 5C) were measured. […]
A general note: A flow cytometer gives signals particle by particle.

In experiment [2] the test system is MCF-7 Nod2 cells. Description: IL-8 secretion (ELISA) in MCF-7 Nod2 cells. Conditions: 24 h. Here is the method: as §1
IL-8 ELISA. Concentrations of IL-8 in the culture supernatants of transfected HeLa cells were measured by ELISA using 96-well Immunlon plates (Dynatech Laboratories, Chantilly, Va.). ELISA was performed using the mAb MAB208 for capture and a biotinylated polyclonal rabbit anti-human IL-8 Ab (R&D Systems, Minneapolis, Minn.) followed by streptavidin HRP for detection.
as §2

Experiment [3] has as its system MCF-7 C20 cells with Nod2. Description: Apoptosis in MCF-7 C20 cells complemented with Nod2. The conditions noted are these: MCF-7 C20 complemented with Nod2 (data not shown).
The subject of experiment [4] is MCF-7 cells expressing wild type RIP2, RIP2 KD or RIP2ΔCARD. Description: Apoptosis (PI, flow cytometry) in MCF-7 cells stably expressing RIP2 constructs. The conditions noted are these: 20 μg/ml, CHX 3 μg/ml, 48 hr. As to the method: FIG. 13A-D illustrate that RIP2 is an important component of the Nod1 apoptotic pathway. […] MCF-7 cells were stably transfected with Myc-Nod1, Myc-RIP2 (wild type), Myc-RIP2 KD, and Myc-RIP2 ΔCARD. Test cells were then treated with γTriDAP, αTriDAP and MDP (20 μg/ml each) in the presence or absence of CHX (3 μg/ml) for 48 hr, while control cells were not treated with these agents. Cells were then incubated with propidium iodide (PI) and apoptotic cell death was measured by flow cytometry. FIG. 13B illustrates the effect of TNF upon apoptosis in the same MCF-7 cell lines described in FIG. 13A. These cells lines were treated with TNF (10 ng/ml) for 18 hr and apoptotic cell death was assessed as described for FIG. 13A. TNF increased apoptosis in all the cell lines tested. […] Cells were incubated in the presence of increasing concentrations of γTriDAP or MDP in the presence of CHX for 48 hr and apoptotic cell death was assessed as described for FIG. 13A. FIG. 13D illustrates IL-8 secretion by MCF-7 Blasto, MCF-7 Nod1 and MCF-7 RIP2 wild type cells after stimulation with γTriDAP in the presence of CHX ([…]) or TNF. […]
Cell viability assays. […] The extent of cell death was analyzed with a FACSCalibur flow cytometer (Becton Dickinson, Mountain View, Calif.). […] Cells were fixed in 4% paraformaldehyde and examined by fluorescence microscopy. […]

Experiment [5] has as its system MCF-7 cells. Description: Propidium iodide exclusion cell death assay, wild-type (parental/Blasto) MCF-7 cells. The conditions noted are these: MCF-7 cells, in the presence of cycloheximide. Here is the method: (§3) Cell viability assays. Propidium iodide exclusion assay: Cells were stimulated as indicated for 2 days. Subsequently, cells were harvested, washed twice in FACS buffer (PBS containing 1% FCS and 0.1% NaN3) and resuspended in propidium iodide (PI)-containing FACS buffer (4 ug/ml). The extent of cell death was analyzed with a FACSCalibur flow cytometer (Becton Dickinson, Mountain View, Calif.). DAPI staining: MCF-7 cells were plated in chamber slides, and stimulated for 2 days. Cells were washed with PBS and apoptotic nuclei were stained with 1 μg/ml DAPI (Sigma Chemical Co., St. Louis, Mo.). Cells were fixed in 4% paraformaldehyde and examined by fluorescence microscopy.
To further investigate the role of Nod1 in apoptosis, a variety of cell types were incubated with the Nod1 ligand, […] (γTriDAP), which specifically activates Nod1. The cell types tested included the parental MCF-7 cell line, the Nod1-deficient MCF-7C20 clone, and a cell line engineered to contain an additional human Nod1 allele (MCF-7Nod1) so that Nod1 was over-expressed. To determine whether the resistance of C20 cells to γTriDAP-induced apoptosis resulted from the absence of Nod1, human Nod1 was stably expressed in MCF-7 C20 cells to produce Nod1-sufficient C20 cells (C20/Nod1). As another control, the parental MCF-7 cell line was transfected with an empty retroviral vector to generate MCF-7 Blasto cells. Cells were treated with γTriDAP in the presence or absence of cycloheximide (CHX) and cell death was then determined by propidium iodide staining and flow cytometry.

For experiment [6], the system named is poly(ADP-ribose)polymerase (PARP) and capases 6, 7, 8 and 9. Description: Western blot of PARP and caspase cleavage in MCF-7 cells. The conditions noted are these: CHX 0.5 ug/ml, 24 h. As to the method: Cleavage of PARP and various caspases was detected by Western blot analysis of cell MCF-7 Blasto, MCF-7 C20 and MCF-7 Nod1 after stimulation with γTriDAP, αTriDAP or medium (control) in the presence or absence of CHX (0.5 ug/ml) for 24 h. Cells were harvested, subjected to western blotting and PARP, caspases, p20, p41/43 and p35 were detected with antibodies reactive thereof.
Western blot analysis and immunoprecipitation. Cells were washed extensively and lysed using lysis buffer containing 50 mM Hepes, 100 mM NaCl, 2 mM EDTA, 10% glycerol, 1% Nonidet P-40, 14 μM pepstatin A, 100 uM leupeptin, 3 mM benzamidine, 1 mM PMSF, 1 mM sodium pyrophosphate, 10 mM sodium orthovanadate, 100 U/ml aprotinin, and 100 mM sodium fluoride. After incubation for 30 min on ice, cell lysates were centrifuged (14000 rpm, 10 min, 4° C.) and the supernatants were recovered. For immunoprecipitation, cell lysates were mixed with 5 μg of antibody for 3 hour at 4° C. under constant agitation. Immune complexes were allowed to bind to 20 μl protein A-Sepharose beads overnight, beads were washed three times with lysis buffer. Immunoprecipitates were separated on SDS-PAGE and transferred to PVDF membranes.
In general terms: Immunoblotting shows a protein as a band on a membrane.

Experiment [7] has as its system MCF-7 cells. Description: Apoptosis in the presence of TNFα (FIG. 8C). Conditions: with TNFα. Here is the method:
FIG. 8A-D illustrate that a synergistic relationship exists between NOD1 and TNFα. FIG. 8A graphically illustrates that the percentage of apoptotic cells increases in dose-specific manner as the concentration of NOD1 increases from 0.0 to 100 μg/ml and the concentration of TNFα increases from 0.5 ng/ml to 1 ng/ml. FIG. 8B graphically illustrates that the percentage of apoptotic cells increases in dose-specific manner as the concentration of cycloheximide increases from 0.0 to 3 μg/ml and the concentration of TNFα increases from 0.5 ng/ml to 1 ng/ml. […] FIG. 8D illustrates NOD1 expression at various time points after exposure of MCF-7 cells to TNFα.

Experiment [8] has as its system SK-BR3. Description: Apoptosis (PI staining), SK-BR3 cells. The conditions noted are these: plus TNFα and cycloheximide (FIG. 9B). As to the method: as §3
To determine if Nod1-dependent apoptosis occurs in other human cell lines, a series of epithelial cell lines were examined where Nod1 was stably expressed to enhance sensitivity to activation of the Nod1 pathway. Cells were treated with TNFα (T) and γTriDAP (γ) in the presence or absence of CHX (C) and monitored for viability by PI staining as a measure of apoptosis (Table 1).

Starred links: 1 amine or outer side, 2 acyl side, 3 side chain; linkers in the order of their positions; H or OH if unused. Non-standard residues stand in square brackets, D forms with d. No end group written: not given here. mesoDAP = meso-diaminopimelic acid, O=C(O)[C@@H](CCC[C@H](N[*:1])C(=O)[*:2])N[*:3]

In the case of muramyl dipeptide [MDP], the apoptosis entry in experiment [1] is given as “did not undergo increased apoptosis”; in experiment [3], “did not result in apoptosis”; in experiment [4] (cells expressing RIP2 KD) it was “effective at inducing high levels of apoptosis”; in experiment [4] (cells expressing either wild type RIP2 or RIP2ΔCARD) it was “not”. Moreover, the IL-8 secretion result in experiment [2] is “did result in IL-8 secretion”.
Consider “αTriDAP: inactive control tri-peptide where mesoDAP was bound to Glu in the α position rather than in the γ position (Ala-Glu-[mesoDAP]; not fully specified)”, for which the cell death entry in experiment [5] was “did not induce cell death”. Also, in experiment [6], the “proteolytic cleavage of PARP and capases 6, 7, 8 and 9” value is reported as “not”. In experiment [7], the “apoptosis in the presence of TNFα” value is recorded as “may actually inhibit apoptosis”. The “apoptosis of SKBR3 cells” value in experiment [8] is given as “reduced apoptosis”.
